In patent US9115134B2, “6-triazolopyridazine sulfanyl benzothiazole derivatives as MET inhibitors” (SANOFI, priority 2007, dated 2015):

How the values were obtained:
MET [1] = target: T1, MET (Homo sapiens, UniProt P08581); experiment: Test B: Inhibition of the autophosphorylation of MET; ELISA technique (pppY1230,1234,1235) in MKN45 cells; assay type: cell-based; design: Seed MKN45 cells into 96-well plates (Cell coat BD polylysine) at 20 000 cells/well; endogenous in cells; host or cells: MKN45 cells; settings: 1 h treatment, PhosphoMET ELISA
Outline: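 Adhered cells treated 1 h with six compound concentrations in duplicate, final 10 000 to 30 nM, against DMSO controls. Cells then lysed at 4° C for 30 min in Triton/SDS/deoxycholate buffer with phosphatase inhibitors. Phospho-MET measured by sandwich ELISA with anti-phospho MET antibody and HRP detection, absorbance at 450 nm.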
Target sequence in this assay (P08581 25-1390): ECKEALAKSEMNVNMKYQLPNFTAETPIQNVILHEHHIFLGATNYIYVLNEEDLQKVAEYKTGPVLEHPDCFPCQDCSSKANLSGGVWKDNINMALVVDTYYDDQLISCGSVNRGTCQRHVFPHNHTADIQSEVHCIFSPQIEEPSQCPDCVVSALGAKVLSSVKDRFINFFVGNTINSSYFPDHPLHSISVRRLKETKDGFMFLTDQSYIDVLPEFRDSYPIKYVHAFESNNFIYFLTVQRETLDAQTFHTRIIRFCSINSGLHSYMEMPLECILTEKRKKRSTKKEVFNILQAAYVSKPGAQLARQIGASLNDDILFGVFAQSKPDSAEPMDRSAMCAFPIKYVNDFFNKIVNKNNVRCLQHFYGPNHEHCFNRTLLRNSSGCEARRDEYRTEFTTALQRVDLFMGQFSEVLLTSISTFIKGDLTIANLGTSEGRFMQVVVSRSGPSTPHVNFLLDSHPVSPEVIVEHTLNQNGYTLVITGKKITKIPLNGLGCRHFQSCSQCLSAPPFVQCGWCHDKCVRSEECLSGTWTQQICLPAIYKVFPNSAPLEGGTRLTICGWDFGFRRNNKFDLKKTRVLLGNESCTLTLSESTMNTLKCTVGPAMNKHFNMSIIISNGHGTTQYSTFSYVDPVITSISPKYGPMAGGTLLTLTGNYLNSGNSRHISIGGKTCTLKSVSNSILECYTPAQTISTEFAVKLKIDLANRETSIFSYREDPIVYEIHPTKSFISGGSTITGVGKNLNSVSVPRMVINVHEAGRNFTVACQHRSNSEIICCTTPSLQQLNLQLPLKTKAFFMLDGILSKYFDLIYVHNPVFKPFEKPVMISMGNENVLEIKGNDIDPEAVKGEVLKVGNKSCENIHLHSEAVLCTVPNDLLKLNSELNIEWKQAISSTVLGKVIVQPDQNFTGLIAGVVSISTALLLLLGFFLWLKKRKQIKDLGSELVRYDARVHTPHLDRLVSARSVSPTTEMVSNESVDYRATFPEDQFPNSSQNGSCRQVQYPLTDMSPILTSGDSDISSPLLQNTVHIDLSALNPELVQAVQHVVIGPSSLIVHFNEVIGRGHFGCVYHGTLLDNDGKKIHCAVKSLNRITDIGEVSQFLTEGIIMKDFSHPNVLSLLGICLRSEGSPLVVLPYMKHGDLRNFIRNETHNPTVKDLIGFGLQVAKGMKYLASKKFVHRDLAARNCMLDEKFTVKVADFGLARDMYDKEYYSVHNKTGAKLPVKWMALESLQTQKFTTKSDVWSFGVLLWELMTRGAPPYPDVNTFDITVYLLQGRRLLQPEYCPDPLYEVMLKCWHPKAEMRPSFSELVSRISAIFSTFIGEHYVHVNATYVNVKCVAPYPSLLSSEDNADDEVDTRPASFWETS

[2] = system: HCT116 cells, MKN45 cells; experiment: Test C: Measurement of cell proliferation by 14C-thymidine pulse; assay type: cell-based; settings: 14C-thymidine incorporation, 96 h of treatment; cell line not given
Outline: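 HCT116 (2500/well, DMEM) and MKN45 (7500/well, RPMI), both with 10% FCS, treated after 4 h with 10 concentrations from 10 000 to 0.3 nM (3-fold, duplicate). ¹⁴C-thymidine (0.1 μCi/well) added at 72 h; incorporation read after 24 h pulse, 96 h total treatment.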

MET [3] = target: T1, MET; experiment: Test A: HTRF MET assay in 96-well format; assay type: biochemical; design: The His-Tev-MET (956-1390) recombinant DNA in pFastBac (Invitrogen) is transfected into insect cells; His tag (N, cleaved yes); TEV cleavage site (N); made in house; host or cells: SF21 insect cells (baculovirus, pFastBac); settings: MET 5 nM, 10 μM ATP
Outline: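 Purified human MET cytoplasmic domain (956-1390, His tag cleaved), 5 nM, with compound (0.17 nM–10 μM, 3% DMSO) in MOPS pH 7.4; 1 μg/ml poly-(GAT), 10 μM ATP, 5 mM MgCl2, 10 min at ambient temperature. HTRF read-out (streptavidin-XL/anti-pTyr Eu cryptate, 2 h); % inhibition from 665/620 ratios.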
Target sequence in this assay (P08581 956-1390): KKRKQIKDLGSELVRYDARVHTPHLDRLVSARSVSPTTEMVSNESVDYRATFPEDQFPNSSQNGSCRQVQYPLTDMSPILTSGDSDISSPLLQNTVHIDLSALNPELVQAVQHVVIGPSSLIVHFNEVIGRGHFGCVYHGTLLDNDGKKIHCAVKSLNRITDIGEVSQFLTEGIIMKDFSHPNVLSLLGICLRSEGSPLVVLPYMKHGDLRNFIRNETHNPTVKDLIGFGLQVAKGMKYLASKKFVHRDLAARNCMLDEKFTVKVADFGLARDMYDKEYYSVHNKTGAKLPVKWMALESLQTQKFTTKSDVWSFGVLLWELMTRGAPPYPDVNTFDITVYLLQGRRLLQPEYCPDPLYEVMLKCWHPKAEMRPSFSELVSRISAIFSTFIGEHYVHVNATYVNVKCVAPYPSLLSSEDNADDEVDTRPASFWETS

IC50 (MET [1]) | IC50 [2] | IC50 (MET [3]) | Structure (SMILES)
100 to 500 nM | < 1000 nM | < 100 nM | COCCNc1ccc2nnc(Sc3ccc4nc(NC(=O)NCCN5CCCC5)sc4c3)n2n1 [Example 48, 1-[6-({6-[(2-Methoxyethyl)amino][1,2,4]triazolo[4,3-b]pyridazin-3-yl}sulphanyl)-1,3-benzothiazol-2-yl]-3-[2-(pyrrolidin-1-yl)ethyl]urea]
100 to 500 nM | < 1000 nM | < 100 nM | CCOC(=O)Nc1nc2ccc(Sc3nnc4ccc(OC)nn34)cc2s1 [Example 45, Ethyl {6-[(6-methoxy[1,2,4]triazolo[4,3-b]pyridazin-3-yl)sulphanyl]-1,3-benzothiazol-2-yl}carbamate]
< 100 nM | < 1000 nM | < 100 nM | O=C(Nc1nc2ccc(Sc3nnc4ccc(-c5ccc(F)cc5)nn34)cc2s1)OCC1CCO1 (stereo not drawn) [Example 35, Oxetan-2-ylmethyl (6-{[6-(4-fluorophenyl)[1,2,4]triazolo[4,3-b]pyridazin-3-yl]sulphanyl}-1,3-benzothiazol-2-yl)carbamate]
< 100 nM | < 1000 nM | < 100 nM | COc1ccc2nnc(Sc3ccc4nc(NC(=O)NCCN5CCOCC5)sc4c3)n2n1 [Example 23, 1-{6-[(6-Methoxy[1,2,4]triazolo[4,3-b]pyridazin-3-yl)sulphanyl]-1,3-benzothiazol-2-yl}-3-[2-(morpholin-4-yl)ethyl]urea]
100 to 500 nM | < 1000 nM | < 100 nM | CC(=O)Nc1nc2ccc(Sc3nnc4ccc(N5CCOCC5)nn34)cc2s1 [Example 18, N-(6-{[6-(Morpholin-4-yl)[1,2,4]triazolo[4,3-b]pyridazin-3-yl]sulphanyl}-1,3-benzothiazol-2-yl)acetamide]

Continued, molecule first:

Structure (SMILES) | IC50 (MET [1]) | IC50 [2] | IC50 (MET [3])
CCN(CC)CCNC(=O)Nc1nc2ccc(Sc3nnc4ccc(-c5ccc(F)cc5)nn34)cc2s1 [Example 17, 1-[2-(Diethylamino)ethyl]-3-(6-{[6-(4-fluorophenyl)[1,2,4]triazolo[4,3-b]pyridazin-3-yl]sulphanyl}-1,3-benzothiazol-2-yl)urea] | < 100 nM | < 1000 nM | < 100 nM
O=C(Nc1nc2ccc(Sc3nnc4ccc(-c5ccc(F)cc5)nn34)cc2s1)Oc1ccccc1 [Example 33, Phenyl (6-{[6-(4-fluorophenyl)[1,2,4]triazolo[4,3-b]pyridazin-3-yl]sulphanyl}-1,3-benzothiazol-2-yl)carbamate] | < 100 nM | < 1000 nM | < 500 nM
COC(=O)Nc1nc2ccc(Sc3nnc4n3N=C(c3ccc(F)cc3)CC4)cc2[nH]1 [Example 5, Methyl (6-{[6-(4-fluorophenyl)-7,8-dihydro[1,2,4]triazolo[4,3-b]pyridazin-3-yl]sulphanyl}-1H-benzimidazol-2-yl)carbamate] | 100 to 500 nM | < 1000 nM | < 100 nM
Nc1nc2ccc(Sc3nnc4ccc(NC5CCCCC5)nn34)cc2s1 [Example 62, 3-[(2-Amino-1,3-benzothiazol-6-yl)sulphanyl]-N-cyclohexyl[1,2,4]triazolo[4,3-b]pyridazin-6-amine] | < 100 nM | < 1000 nM | < 100 nM
Nc1nc2ccc(Sc3nnc4n3N=C(c3cccc(F)c3)CC4)cc2s1 [Example 54, 6-{[6-(3-Fluorophenyl)-7,8-dihydro[1,2,4]triazolo[4,3-b]pyridazin-3-yl]sulphanyl}-1,3-benzothiazol-2-amine] | 100 to 500 nM | < 1000 nM | < 100 nM
CC(C)(C)OC(=O)Nc1nc2ccc(Sc3nnc4ccc(OCC(O)CCCl)nn34)cc2s1 (stereo not drawn) [Example 51, 2-Methylpropan-2-yl(6-{[6-(4-chloro-2-hydroxybutoxy)[1,2,4]triazolo[4,3-b]pyridazin-3-yl]sulphanyl}-1,3-benzothiazol-2-yl)carbamate] | < 100 nM | < 1000 nM | < 100 nM
